Measured values published in US11096916B2, “Use of nicotinic acetylcholine receptor alpha 7 activators” (NOVARTIS AG, priority 2009, dated 2021).

Assays:
parkinsonian primates = assay: Assessment of antidyskinetic effect in parkinsonian primates (MPTP, levodopa-induced dyskinesia); format: in vivo, cynomolgus monkeys (Macaca fascicularis); conditions: for Duration of Levodopa-Response / Mean Dyskinesia Score (total period): five MPTP monkeys
Experimental: Female ovariectomized cynomolgus monkeys (Macaca fascicularis) are used in the assessment. The animals can be rendered parkinsonian by continuous infusion of 1-methyl-4-phenyl-1,2,3,6-tetrahydropyridine (MPTP) until they develop a stable parkinsonian syndrome. After recuperation, animals are treated daily with levodopa until clear and reproducible dyskinesias are developed.
Monkeys are observed through a one-way screen window in their home cage. They are observed and scored repeatedly at baseline and after a standard s.c. dose of levodopa. Locomotor activity is assessed and followed with an electronic monitoring system. Antiparkinsonian responses are evaluated by measuring the locomotor activity and a Parkinson disability scale (see Hadj Tahar A et al, Clin Neuropharmacol 2000; 23:195-202; and Samadi P et al, Neuropharmacology 2003; 45:954-963). Dyskinesias are closely monitored and scored according to a dyskinesia rating scale (also described in Hadj Tahar A et al; and Samadi P et al) every 15 minutes until the end of the effect. The doses of levodopa are chosen to induce motor activation and reproducible dyskinesia but no excessive agitation.
Monkeys are observed for at least two hours following an oral administration of vehicle. On a subsequent day, the dose of levodopa selected is tested once. The animals are observed (with measures of parkinsonian and dyskinetic scores) for the entire duration of the levodopa effect and are also monitored for locomotor activity. This provides vehicle control values as well as levodopa antiparkinsonian and dyskinesia response data for comparison with combinations of a α7-nAChR agonist/positive allosteric modulator and levodopa. The monkeys are then tested with a α7-nAChR agonist/positive allosteric modulator in combination with a fixed dose of levodopa. A suspension for oral administration of the α7-nAChR agonist/positive allosteric modulator is administered before levodopa. After each dose, the animals are observed (with measures of parkinsonian and dyskinetic scores) for the entire duration of effect and monitored for locomotor activity or any change in behavior (e.g. circling, excitement, lethargy and sleepiness).
Using this protocol, compound A-1 at a dose of 20 mg/kg was tested. Results based on five monkeys (levodopa/benserazide doses: 22.5/50 mg; 65/50 mg; 30/50 mg; 35/50 mg; and 25/50 mg) are shown in FIGS. 1-4.

[1] = target: T1, human neuronal nAChR α4β2 (Homo sapiens, UniProt P17787+P43681); assay: similar functional assay in human epithelial cell line stably expressing human α4β2 subtype; format: cell-based; conditions: α7-nAChR against α4β2-nAChR
T1 construct: expressed in transfected cells; host or cells: human epithelial cell line (named a human embryonic kidney cell line)
T1 sequence (P43681 29-627 limits assumed): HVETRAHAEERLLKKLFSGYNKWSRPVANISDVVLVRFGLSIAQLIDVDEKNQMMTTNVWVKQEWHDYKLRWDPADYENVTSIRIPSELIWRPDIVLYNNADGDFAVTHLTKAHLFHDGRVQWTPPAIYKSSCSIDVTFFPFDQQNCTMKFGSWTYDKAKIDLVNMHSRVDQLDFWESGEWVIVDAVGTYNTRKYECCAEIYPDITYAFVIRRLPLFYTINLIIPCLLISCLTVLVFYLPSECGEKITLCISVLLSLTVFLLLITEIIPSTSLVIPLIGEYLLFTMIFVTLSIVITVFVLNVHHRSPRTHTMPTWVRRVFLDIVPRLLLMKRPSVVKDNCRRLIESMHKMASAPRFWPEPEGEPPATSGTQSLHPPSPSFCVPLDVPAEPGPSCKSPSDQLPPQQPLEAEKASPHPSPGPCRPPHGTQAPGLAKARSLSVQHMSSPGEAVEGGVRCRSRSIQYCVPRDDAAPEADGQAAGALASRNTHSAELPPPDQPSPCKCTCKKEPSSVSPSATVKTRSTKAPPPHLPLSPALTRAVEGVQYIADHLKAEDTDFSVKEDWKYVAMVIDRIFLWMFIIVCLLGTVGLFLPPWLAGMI
T1 sequence (P17787 26-502): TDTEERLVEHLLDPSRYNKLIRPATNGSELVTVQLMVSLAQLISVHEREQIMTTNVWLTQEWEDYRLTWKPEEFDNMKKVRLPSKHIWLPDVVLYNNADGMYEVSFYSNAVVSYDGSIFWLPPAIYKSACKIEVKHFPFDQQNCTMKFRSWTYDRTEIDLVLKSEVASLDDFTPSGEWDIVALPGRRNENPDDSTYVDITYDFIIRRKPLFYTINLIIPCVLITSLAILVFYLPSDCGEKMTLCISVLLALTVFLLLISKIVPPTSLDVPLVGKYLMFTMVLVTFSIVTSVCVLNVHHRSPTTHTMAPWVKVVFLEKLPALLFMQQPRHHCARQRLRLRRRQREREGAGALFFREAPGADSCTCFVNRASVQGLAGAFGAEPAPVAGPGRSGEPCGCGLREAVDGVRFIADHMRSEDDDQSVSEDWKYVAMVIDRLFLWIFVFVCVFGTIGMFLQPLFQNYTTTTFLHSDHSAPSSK
Experimental: To assess the activity of the compound of the invention on the human neuronal nAChR α4β2, a similar functional assay is carried out using a human epithelial cell line stably expressing the human α4β2 subtype (Michelmore et al., Naunyn-Schmiedeberg's Arch. Pharmacol. (2002) 366, 235).

human α7-nAChR = target: T2, human α7-nAChR (Homo sapiens, UniProt P36544); assay: functional assay, calcium influx (FLIPR) in GH3 cells recombinantly expressing human α7-nAChR; format: cell-based; conditions: for α7-nAChR activity Efficacy compared to epibatidine (100%): Emax, maximal effect compared to the epibatidine response
T2 construct: expressed in transfected cells; host or cells: GH3 cells (rat pituitary cell line)
T2 sequence (P36544 23-502): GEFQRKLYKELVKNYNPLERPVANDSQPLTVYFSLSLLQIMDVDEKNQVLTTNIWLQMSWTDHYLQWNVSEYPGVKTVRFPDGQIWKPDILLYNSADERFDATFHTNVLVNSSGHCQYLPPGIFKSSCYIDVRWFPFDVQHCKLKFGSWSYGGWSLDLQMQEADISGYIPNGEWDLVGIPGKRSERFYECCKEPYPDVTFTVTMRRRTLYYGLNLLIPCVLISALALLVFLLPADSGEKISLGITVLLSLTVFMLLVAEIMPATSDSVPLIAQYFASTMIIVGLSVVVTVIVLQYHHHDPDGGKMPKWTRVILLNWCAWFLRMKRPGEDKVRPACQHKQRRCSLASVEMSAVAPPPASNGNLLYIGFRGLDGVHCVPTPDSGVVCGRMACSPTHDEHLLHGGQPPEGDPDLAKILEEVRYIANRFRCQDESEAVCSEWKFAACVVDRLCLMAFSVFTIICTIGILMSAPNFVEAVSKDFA
Experimental: To assess α7-nAChR activity, a functional assay was employed using GH3 cells that recombinantly expressed human α7-nAChR. 50000 cells per well were seeded 72 h prior to the experiment on black 96-well plates (Costar) and incubated at 37° C. in a humidified atmosphere (5% CO2/95% air). On the day of the experiment, medium was removed by flicking the plates and replaced with 100 μl growth medium containing […] Fluo-4, (Molecular Probes) in the presence of 2.5 mM probenecid (Sigma). The cells were incubated at 37° C. in a humidified atmosphere (5% CO2/95% air) for 1 h. Plates were flicked to remove excess of Fluo-4, washed twice with Hepes-buffered salt solution (in mM: NaCl 130, KCl 5.4, CaCl2 2, MgSO4 0.8, NaH2PO4 0.9, glucose 25, Hepes 20, pH 7.4; HBS) and refilled with 100 μl of HBS containing antagonist when appropriate. The incubation in the presence of the antagonist lasted 3-5 minutes. Plates were placed in the cell plate stage of a FLIPR device (fluorescent imaging plate reader, Molecular Devices, Sunnyvale, Calif., USA). After recording of the baseline (laser: excitation 488 nm at 1 W, CCD camera opening of 0.4 seconds) the agonists (50 μl) were added to the cell plate using the FLIPR 96-tip pipettor while simultaneously recording the fluorescence.
Calcium kinetic data were normalized to the maximal fitted response induced by epibatidine, which is a full agonist at α7-nAChR. Four parameter Hill equations were fitted to the concentration-response. Values of Emax (maximal effect in % compared to the epibatidine response) and EC50 (concentration producing half the maximal effect in μM) were derived from this fit.

mice = assay: Social Recognition Test in mice; format: in vivo, mouse; conditions: oral, familiar partner at 24 h vs time 0
Experimental: Social interactions between two experimental animals are influenced by their degree of familiarity: the better they know each other, the less time they spend on mutual scrutiny at each meeting. […] Memory enhancing agents (i.e. oxiracetam) facilitate learning to the extent that the previously met (familiar) partner is still remembered after 24 h, whereas in vehicle treated control animals the memory usually fades after less than 1 hour (Thor and Holloway, 1982) or after 2-3 hours.
Pairs consisting of one adult and one young mouse were assigned at random to the experimental and control groups. In each pair only the adult mouse was orally treated 1 hour before the trial with either vehicle or the test compound. The duration of active contacts of the adult mouse with the young mouse was manually recorded over a period of 3 min, including the following behavioural, approach-related items: sniffing, nosing, grooming, licking, pawing and playing, anogenital exploration and orientation toward the young mouse; orientation, thereby, was defined as tip of nose of the adult mouse less than approximately 1 cm distant from the young mouse's body.
Twenty-four hours after the baseline-test, the adults in each treatment group were confronted again with […] the half of the adult animals were put together with the previously encountered (familiar) partner and the other half with another (unfamiliar) young mouse. Again the duration of active approach-behaviours was recorded during a 3-min period. Prior to re-test no oral injection was given.
In the table the reduction in time scrutinizing the familiar partner at time 24 compared with the familiar partner at time 0 minutes is given (value of zero would signify no reduction).

[2] = Oral bioavailability and brain penetration in mice; format: in vivo; conditions: 30 μmol/kg p.o.
Experimental: Compounds were orally (30 μmol/kg) administered. Male mice (30-35 g, OF1/ICstrain) were sacrificed at indicated time points after oral administration. Trunk-blood was collected in EDTA-containing tubes and the brain was removed and immediately frozen on dry ice.
To 100 μl plasma 10 μl internal standard (1.0 μmol of a compound with solubility and ionization properties similar to test compounds) was added and extracted three times with 500 μl dichloromethane. The combined extracts were then dried under a stream of nitrogen and re-dissolved in 100 μl acetonitrile/water (70% acetonitrile). Brains were weighed and homogenized in water (1:5 w/v). Two 100 μl aliquots of each homogenate+10 μl of internal standard (same standard as used for the plasma samples) were extracted three times with 500 μl dichloromethane and further processed as the plasma samples. Samples were separated on Beckmann high-performance liquid chromatography equipment system with an autosampler (Gilson 233XL).
The limit of detection (LOD), defined as the lowest concentration of the extracted standard sample with a signal to noise ratio of ˜3.

[3] = levodopa/benserazide without compound A-1
[4] = MPTP monkeys, A-1 20 mg/kg plus levodopa/benserazide, result in words
[5] = compound A-1 20 mg/kg oral before levodopa/benserazide

SMILES	fold selectivity [1]	α7-nAChR activity Efficacy compared to epibatidine (100%) (human α7-nAChR)	Reduction in time scrutinizing in % ± SEM at 24 h (mice; dose 0.3 mg/kg)	Brain (pmoles/g ± SD) ([2]; 0.25 hour)	Brain (pmoles/g ± SD) ([2]; 0.5 hour)	Brain (pmoles/g ± SD) ([2]; 1 hour)	Brain (pmoles/g ± SD) ([2]; 2 hour)	Brain (pmoles/g ± SD) ([2]; 4 hour)	Brain (pmoles/g ± SD) ([2]; 8 hour)	Brain (pmoles/g ± SD) ([2]; 24 hour)	further results
N[C@@H](Cc1ccc(O)c(O)c1)C(=O)O [levodopa, reference compound]											Duration of Levodopa-Response (parkinsonian primates; [3]): 230 min; Mean Dyskinesia Score (total period) (parkinsonian primates; [3]): 2.8
c1cc2cc(-c3cnc(O[C@H]4CCN5CCC[C@@H]4C5)nc3)ccc2[nH]1 [C-1, (4S,5R)-4-[5-(1H-indol-5-yl)-pyrimidin-2-yloxy]-1-aza-bicyclo[3.3.1]nonane]	388 fold	84%	51 ± 3%	620 ± 221 pmol/g	1405 ± 539 pmol/g	1458 ± 189 pmol/g	1478 ± 259 pmol/g	842 ± 187 pmol/g	362 ± 62 pmol/g		
C[C@H](OC(=O)N[C@@H]1CN2CCC1CC2)c1ccccc1F [A-1, (S)-(1-aza-bicyclo[2.2.2]oct-3-yl)-carbamic acid (S)-1-(2-fluoro-phenyl)-ethyl ester]	234 fold	83%			706.3 ± 153.4 pmol/g	573.7 ± 109.3 pmol/g	191.9 ± 34.9 pmol/g	104.6 ± 39.6 pmol/g		9.1 ± 2.7 pmol/g	antiparkinsonian activity of levodopa (antiparkinsonian score) (parkinsonian primates; [4]): does not lower; duration of the antiparkinsonian activity of levodopa (parkinsonian primates; [4]): significantly increases; levodopa-induced dyskinesias (parkinsonian primates; [4]): significantly reduces; onset of action of levodopa (Elapsed Time after Levodopa Administration) (parkinsonian primates; [4]): does not delay; Duration of Levodopa-Response (parkinsonian primates; [5]): 265 min; Mean Dyskinesia Score (total period) (parkinsonian primates; [5]): 2.1; EC50 (human α7-nAChR; read-out: α7-nAChR activity Potency EC50): 100 nM; Reduction in time scrutinizing in % ± SEM at 24 h (mice; dose 3 mg/kg): 52 ± 4%; Brain (pmoles/g ± SD) ([2]; 6 hour): 40.5 ± 12.1 pmol/g
C[C@H]1[C@H](Oc2ccc(-c3ccc4[nH]ccc4c3)nn2)C2CCN1CC2 [B-13, (2S,3R)-3-[6-(1H-indol-5-yl)-pyridazin-3-yloxy]-2-methyl-1-aza-bicyclo[2.2.2]octane]	324 fold	89%	37 ± 7%	1884 ± 291 pmol/g	2960 ± 706 pmol/g	2940 ± 335 pmol/g	1260 ± 172 pmol/g	379 ± 134 pmol/g	93 ± 30 pmol/g	13 ± 4 pmol/g	Plasma (pmoles/ml ± SD) ([2]; 0.25 hour): 2196 ± 397 pmol/mL; Plasma (pmoles/ml ± SD) ([2]; 0.5 hour): 2265 ± 419 pmol/mL; Plasma (pmoles/ml ± SD) ([2]; 1 hour): 1554 ± 523 pmol/mL; Plasma (pmoles/ml ± SD) ([2]; 2 hour): 1172 ± 252 pmol/mL; Plasma (pmoles/ml ± SD) ([2]; 4 hour): 429 ± 167 pmol/mL; Plasma (pmoles/ml ± SD) ([2]; 8 hour): 80 ± 23 pmol/mL
